Values of other authors, collected in patent US20230170070A1, “SYSTEM AND METHOD FOR PROVIDING FERTILITY ENHANCING DIETARY RECOMMENDATIONS IN INDIVIDUALS WITH SPERM CONDITIONS” (SOCIETE DES PRODUITS NESTLE S.A., priority 2020, published 2023).
Like-named read-outs stand apart in the source and are kept apart here. Each block holds one compound with its values, some of them ahead of it.

Experiments:
[1] = test system: semen quality; settings: for semen quality: In RCTs
[2] = test system: sperm cells; settings: excessive alcohol
[3] = for pregnancy rate in the female partner: In RCTs
[4] = test system: oxidative stress status; settings: exogenous supplementation; both in vitro and in vivo
[5] = test system: sperm
[6] = test system: semen quality; settings: from cold water fish
[7] = among men with astheno- or oligoasthenozoospermia

Compound: O[C@H]1[C@H](O)[C@@H](O)[C@H](O)[C@@H](O)[C@H]1O [Myoinositol]
progressive motility ([1]; myoinositol supplementation): increase in sperm
sperm concentration ([1]; myoinositol supplementation): increase in sperm
sperm count ([1]; myoinositol supplementation): increase in sperm

hormones in men [2]: decreases hormones in
sperm cells [2]: men and degenerates
Compound: CCO [Alcohol]

Compound: Vitamin E
pregnancy rate in the female partner [3]: been shown to increase
semen quality [1]: been shown to increase

Compound: CC(=O)O[C@H](CC(=O)[O-])C[N+](C)(C)C [L-acetyl carnitine (LAC), L-acetyl carnitine]
sperm concentration [1, 7]: can significantly improve
total sperm counts [1, 7]: can significantly improve

Compound: O=C(O)CCCCC1CCSS1 (stereo not drawn) [Alpha-lipoic acid (ALA), Alpha-lipoic acid]
oxidative stress status [4]: improve oxidative stress

Compound: C=C1CC[C@H](O)C/C1=C/C=C1\CCC[C@]2(C)[C@@H]([C@H](C)CCCC(C)C)CC[C@@H]12 [Vitamin D]
live birth rate ([3]; among oligozoospermic men, high-dose supplementation compared to placebo): uptake. A higher live

Compound: O=C1O[C@H]([C@@H](O)CO)C(O)=C1O [Vitamin C]
progressive sperm motility ([1]; in vivo): increase in progressive

Compound: [Se] [Selenium]
total sperm motility ([1]; compared with placebo): increase in total sperm

non-genomic effects on sperm capacitation and acrosome reaction [5]: genomic negative
Compound: isoflavones

Compound: C[N+](C)(C)C[C@H](O)CC(=O)[O-] [L-carnitine]
sperm concentration [1, 7]: can significantly improve
total sperm counts [1, 7]: can significantly improve

Compound: N[C@@H](CCC(=O)N[C@@H](CS)C(=O)NCC(=O)O)C(=O)O [Glutathione]
sperm concentration ([1]; glutathione supplementation): Improves sperm
sperm morphology ([1]; glutathione supplementation): Improves sperm
sperm motility ([1]; glutathione supplementation): Improves sperm

Compound: CC(C)=CCC/C(C)=C/C=C/C(C)=C/C=C/C(C)=C/C=C/C=C(C)/C=C/C=C(C)/C=C/C=C(\C)CCC=C(C)C [Lycopene]
sperm parameters ([1]; in vivo): Improve sperm

Compound: [Zn] [Zinc]
pregnancy rate in the female partner [3]: shown to increase
semen quality [1]: shown to increase

Compound: omega-3 fatty acids
influence on sperm morphology [6]: positive influence

Compound: COc1cc(/C=C/C(=O)CC(=O)/C=C/c2ccc(O)c(OC)c2)ccc1O [Curcumin]
semena quality parameters ([1]; among oligoasthenoteratozoospermic men): Curcumin improved
